Reference: PMC3586729 (Nature Communications, 2013)

Biological target: T1, F. pringlei R884G mutant C3 PEPC (Flaveria pringlei, UniProt Q01647, R885G)
T1 sequence (Q01647 1-967 R885G): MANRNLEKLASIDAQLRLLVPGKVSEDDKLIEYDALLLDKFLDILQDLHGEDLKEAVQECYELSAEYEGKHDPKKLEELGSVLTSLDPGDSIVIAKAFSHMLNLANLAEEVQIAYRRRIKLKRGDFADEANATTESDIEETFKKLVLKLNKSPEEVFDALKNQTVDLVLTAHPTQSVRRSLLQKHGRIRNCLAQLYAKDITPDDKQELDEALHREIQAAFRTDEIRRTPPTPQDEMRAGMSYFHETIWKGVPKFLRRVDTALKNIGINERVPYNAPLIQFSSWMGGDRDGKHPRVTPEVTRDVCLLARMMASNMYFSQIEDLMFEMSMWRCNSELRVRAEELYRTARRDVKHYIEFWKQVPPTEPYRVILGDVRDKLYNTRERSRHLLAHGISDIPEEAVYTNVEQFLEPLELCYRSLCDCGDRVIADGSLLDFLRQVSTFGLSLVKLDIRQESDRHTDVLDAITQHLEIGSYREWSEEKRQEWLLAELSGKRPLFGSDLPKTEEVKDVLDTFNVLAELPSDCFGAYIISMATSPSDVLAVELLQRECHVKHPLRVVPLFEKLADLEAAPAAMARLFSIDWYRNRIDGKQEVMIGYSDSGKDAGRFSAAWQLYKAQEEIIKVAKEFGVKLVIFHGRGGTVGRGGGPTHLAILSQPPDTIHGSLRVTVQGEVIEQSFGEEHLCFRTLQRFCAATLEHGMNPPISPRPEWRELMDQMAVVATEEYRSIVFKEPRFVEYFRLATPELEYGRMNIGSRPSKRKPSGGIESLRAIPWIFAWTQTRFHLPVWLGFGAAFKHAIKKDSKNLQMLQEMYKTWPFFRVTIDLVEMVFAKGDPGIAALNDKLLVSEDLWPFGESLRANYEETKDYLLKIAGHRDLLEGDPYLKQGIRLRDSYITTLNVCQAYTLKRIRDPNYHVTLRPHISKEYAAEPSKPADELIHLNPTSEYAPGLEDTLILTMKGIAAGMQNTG
Type: biochemical
Conditions: C3 PEPC R884G versus wild-type C3 PEPC from F. pringlei

O=C(O)CC(O)C(=O)O (stereo not shown) [malate]
malate tolerance of the engineered enzyme increased by a factor: ~ 3
